Reference: patent US20200390767A1, “Formulations of 4-(7-Hydroxy-2-isopropyl-4-oxo-4H-quinazolin-3-yl)-benzonitrile” (NOVARTIS AG, priority 2019, published 2020)

Test system: postoperative ocular pain in patients undergoing photorefractive keratectomy (PRK) surgery
Assay: PRK clinical study, oral rescue medication use
Assay type: in vivo, human
Description: Rescue medication consisted of oral analgesic (acetaminophen 300 mg+codeine 30 mg) as needed up to a total of 10 tabs/day or 1-2 tabs every 4 hours.
After 36 hours post-operation, the same number of patients took ORM in compound I vs. Vehicle (Table 24).

CC(C)c1nc2cc(O)ccc2c(=O)n1-c1ccc(C#N)cc1 [Compound I, 4-(7-hydroxy-2-isopropyl-4-oxo-4H-quinazolin-3-yl)-benzonitrile]
% Change (Compound I-Vehicle)/Vehicle, mg/kg of body weight (0-6 hours post-operatively): −25% | % Change (Compound I-Vehicle)/Vehicle, number of pills (0-6 hours post-operatively): −25% | amount of oral rescue medication, Mean (SD) (0-6 hours post-operatively): 3.32 (4.684) mg/kg of body weight | amount of oral rescue medication, Mean (SD) (0-6 hours post-operatively, listed as compound I): 0.75 (1.032) Number of pills | % Change (Compound I-Vehicle)/Vehicle, mg/kg of body weight (0-12 hours post-operatively): −17% | % Change (Compound I-Vehicle)/Vehicle, number of pills (0-12 hours post-operatively): −15% | amount of oral rescue medication, Mean (SD) (0-12 hours post-operatively): 6.10 (8.062) mg/kg of body weight | amount of oral rescue medication, Mean (SD) (0-12 hours post-operatively, listed as compound I): 1.40 (1.780) Number of pills | % Change (Compound I-Vehicle)/Vehicle, mg/kg of body weight (0-24 hours post-operatively): −18% | % Change (Compound I-Vehicle)/Vehicle, number of pills (0-24 hours post-operatively): −16% | amount of oral rescue medication, Mean (SD) (0-24 hours post-operatively): 10.17 (12.335) mg/kg of body weight | amount of oral rescue medication, Mean (SD) (0-24 hours post-operatively, listed as compound I): 2.35 (2.751) Number of pills | % Change (Compound I-Vehicle)/Vehicle, mg/kg of body weight (0-48 hours post-operatively): −14% | % Change (Compound I-Vehicle)/Vehicle, number of pills (0-48 hours post-operatively): −13% | amount of oral rescue medication, Mean (SD) (0-48 hours post-operatively): 17.59 (19.850) mg/kg of body weight | amount of oral rescue medication, Mean (SD) (0-48 hours post-operatively, listed as compound I): 4.05 (4.466) Number of pills | % Change (Compound I-Vehicle)/Vehicle, mg/kg of body weight (0-72 hours post-operatively): −15% | % Change (Compound I-Vehicle)/Vehicle, number of pills (0-72 hours post-operatively): −14% | amount of oral rescue medication, Mean (SD) (0-72 hours post-operatively): 18.70 (21.509) mg/kg of body weight | amount of oral rescue medication, Mean (SD) (0-72 hours post-operatively, listed as compound I): 4.33 (4.896) Number of pills
